Data on 6 compounds can be found in paper PMC4072317 (Food chemistry, 2013).

Read-outs that look alike come from different tables or passages of the source.

Data set [1] concerns human intestinal Caco-2 cell membranes. Particulars: ref Yi et al., 2006; cited from earlier work.
For data set [2] the following is noted: for ACNs in I.E. as % of input: fed state (high fat meal), ileal efflux over 4 h, mean ± range, two experiments.
The conditions of data set [3]: for hourly bioaccessibility as a percentage of anthocyanin input: fasted state, 4 h.
The subject of data set [4] is mice with diet-induced diabetes. As to conditions: orally administered, ref Grace et al., 2009; cited from earlier work.

Take `OC[C@H]1O[C@@H](Oc2cc3c(O)cc(O)cc3[o+]c2-c2cc(O)c(O)c(O)c2)[C@H](O)[C@@H](O)[C@@H]1O` [dp-3-Glucoside, delphinidin-3-glucoside]: the “transport efficiency in Caco-2 cells” value in data set [1] is reported as “lower transport efficiency”.
Regarding `COc1cc(-c2[o+]c3cc(O)cc(O)c3cc2O[C@@H]2O[C@H](COC(C)=O)[C@H](O)[C@H](O)[C@H]2O)cc(OC)c1O` [mal-3-(6″-Acetoyl)-galactoside], the “ACNs in I.E. as % of input” value in data set [2] was 2.4 ± 0.9 % of input.
Turning to `COc1cc(-c2[o+]c3cc(O)cc(O)c3cc2O[C@@H]2OC[C@H](O)[C@H](O)[C@H]2O)cc(OC)c1O` [mal-3-Arabinoside, malvidin-3-arabinoside], the “ACNs in I.E. as % of input” value in data set [2] is recorded as 2.6 ± 0.4 % of input. Further, the “total bioaccessibility in the fasted state relative to the fed state” value in data set [3] (fasted vs fed (high fat meal), Tables 1 and 2) is on record as “twice as bioaccessible”.
With `COc1cc(-c2[o+]c3cc(O)cc(O)c3cc2O[C@@H]2O[C@H](CO)[C@H](O)[C@H](O)[C@H]2O)cc(OC)c1O` [mal-3-Galactoside], in data set [2], the “ACNs in I.E. as % of input” value was 2.6 ± 0.8 % of input.
Turning to `COc1cc(-c2[o+]c3cc(O)cc(O)c3cc2O[C@@H]2O[C@H](CO)[C@@H](O)[C@H](O)[C@H]2O)cc(OC)c1O` [mal-3-Glucoside, malvidin-3-glucoside], the hypoglycemic effect result in data set [4] is “hypoglycemic”. For the same compound, in data set [2], the “ACNs in I.E. as % of input” value is on record as 3.2 ± 0.1 % of input. For the same compound, in data set [1], the “transport efficiency in Caco-2 cells” value is recorded as “highest transport efficiency”. Also, the figures for the “hourly bioaccessibility as a percentage of anthocyanin input” value in data set [3] (ileal samples) and in data set [3] (jejunum) were 0.3% and 0.8%, respectively.
For `COc1cc(-c2[o+]c3cc(O)cc(O)c3cc2O[C@@H]2OC[C@H](O)[C@H](O)[C@H]2O)cc(O)c1O.[Cl-]` [pt-3-Arabinoside, petunidin-3-arabinoside], the “total bioaccessibility in the fed state relative to the fasted state” value in data set [2] (fed (high fat meal) vs fasted, Tables 1 and 2) is reported as “twice as bioaccessible”. In data set [2], the “ACNs in I.E. as % of input” value is given as 4.5 ± 1.5 % of input.
